Data taken from patent US7402548B2, “Benzoxazole compounds, process for producing the same and herbicides” (Kyoyu Agri Co., Ltd., priority 2000, dated 2008).

Key:
[1] = tested on: Large crabgrass; assay: Soil treatment test for upland field; type: in vivo, Digitaria adscendens; design: key: 0 = normal development, 5 = all killed; conditions: 500 g/ha, 3 weeks, glass house 25° C.
Procedure, shortened: (§1)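 Pre-emergence: seeds sown in alluvial Ube soil, wettable powder diluted in water with 0.05% surfactant sprayed on soil surface at 500 g/ha. Plants held in glasshouse at 25° C average for 3 weeks. Damage scored 0 (normal) to 5 (all killed) versus untreated.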

[2] = tested on: barnyard grass; assay: Herbicidal test for paddy field; type: in vivo, Eschinochloa crusgalli; conditions: 500 g/ha, dropwise addition to paddy water at 1.5 leaf stage of barnyard grass; glass house 25° C., 3 weeks; rank 0-5 vs non-treated district
Procedure, shortened: (§2)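 Wettable-powder formulations in water with 0.05% surfactant were dripped onto flooded (3 cm) Ube alluvial-soil pots at 500 g/ha, applied at barnyard grass 1.5-leaf stage. Plants were kept in a glasshouse at 25° C. for 3 weeks. Damage was scored 0 (normal) to 5 (all killed) versus untreated plants.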

[3] = tested on: annual bluegrass; assay: Soil treatment test for upland field; type: in vivo, Poa annua; design: key: 0 = normal development, 5 = all killed; conditions: 500 g/ha, 3 weeks, glass house 25° C.
Procedure, shortened: as §1

[4] = tested on: corn; assay: Soil treatment test for upland field; type: in vivo; design: key: 0 = normal development, 5 = all killed; conditions: 500 g/ha, 3 weeks, glass house 25° C.
Procedure, shortened: as §1

[5] = tested on: wheat; assay: Soil treatment test for upland field; type: in vivo; design: key: 0 = normal development, 5 = all killed; conditions: 500 g/ha, 3 weeks, glass house 25° C.
Procedure, shortened: as §1

[6] = tested on: soybean; assay: Soil treatment test for upland field; type: in vivo; design: key: 0 = normal development, 5 = all killed; conditions: 500 g/ha, 3 weeks, glass house 25° C.
Procedure, shortened: as §1

[7] = tested on: barnyard grass; assay: Soil treatment test for upland field; type: in vivo, Eschinochloa crusgalli; design: key: 0 = normal development, 5 = all killed; conditions: 500 g/ha, 3 weeks, glass house 25° C.
Procedure, shortened: as §1

[8] = tested on: monochoria; assay: Herbicidal test for paddy field; type: in vivo, Monochoria vaginalis; conditions: 500 g/ha, dropwise addition to paddy water at 1.5 leaf stage of barnyard grass; glass house 25° C., 3 weeks; rank 0-5 vs non-treated district
Method: (§3) Wagner pots, each having an area of 1/5000 are, were packed with Ube soil (alluvial soil) and planted with seeds or tubers of young rice plant, barnyard grass, bulrush, Cyperus serotinus Rottb., arrowhead and monochoria. Then, the pots were filled with water to a depth of 3 cm.
(§4) Each wettable powder of the desired Compounds (I) shown in Tables 1 to 21, 24, 25, 28 and 29 prepared in accordance with Example 2 was diluted with water containing a surfactant (0.05%) and subjected to dropwise addition treatment by using pipet so that an effective concentration of the compound (I) in each herbicide became 500 g/ha at 1.5 leaf stage of barnyard grass.
(§5) These plants were controlled in a glass house at an average temperature of 25° C. for 3 weeks, and then herbicidal effects thereof were investigated.
(§6) The herbicidal effects are evaluated according to the following 6 ranks as compared with non-treated district. (0: normal development, 1: Less damaged, 2: Slightly damaged, 3: Moderately damaged, 4: Severely damaged, 5: All killed). Incidentally, “-” in the column means not investigated.

[9] = tested on: green foxtail; assay: Foliar spread test for upland field; type: in vivo, Setaria viridis; design: key: 0 = normal development, 5 = all killed (6 ranks vs. untreated); conditions: foliar spray, 500 ppm, 3 weeks, glass house 25° C.
Procedure, shortened: (§7)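 Scores on a 0–5 scale (0 normal development, 5 all killed), relative to untreated controls, were taken 3 weeks post-treatment in a 25 °C glass house. Treatment was a uniform foliar spray at 500 ppm (0.5% surfactant) onto roughly 2-week-old soil-grown plants.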

[10] = tested on: green foxtail; assay: Soil treatment test for upland field; type: in vivo, Setaria viridis; design: key: 0 = normal development, 5 = all killed; conditions: 500 g/ha, 3 weeks, glass house 25° C.
Procedure, shortened: as §1

[11] = tested on: livid amaranth; assay: Foliar spread test for upland field; type: in vivo, Amaranthus lividus; design: key: 0 = normal development, 5 = all killed (6 ranks vs. untreated); conditions: foliar spray, 500 ppm, 3 weeks, glass house 25° C.
Procedure, shortened: as §7

[12] = tested on: Large crabgrass; assay: Foliar spread test for upland field; type: in vivo, Digitaria adscendens; design: key: 0 = normal development, 5 = all killed (6 ranks vs. untreated); conditions: foliar spray, 500 ppm, 3 weeks, glass house 25° C.
Procedure, shortened: as §7

[13] = tested on: common lambsquarters; assay: Foliar spread test for upland field; type: in vivo, Chenopodium album; design: key: 0 = normal development, 5 = all killed (6 ranks vs. untreated); conditions: foliar spray, 500 ppm, 3 weeks, glass house 25° C.
Procedure, shortened: as §7

[14] = tested on: wheat; assay: Foliar spread test for upland field; type: in vivo; design: key: 0 = normal development, 5 = all killed (6 ranks vs. untreated); conditions: foliar spray, 500 ppm, 3 weeks, glass house 25° C.
Procedure, shortened: as §7

[15] = tested on: livid amaranth; assay: Soil treatment test for upland field; type: in vivo, Amaranthus lividus; design: key: 0 = normal development, 5 = all killed; conditions: 500 g/ha, 3 weeks, glass house 25° C.
Procedure, shortened: as §1

[16] = tested on: common lambsquarters; assay: Soil treatment test for upland field; type: in vivo, Chenopodium album; design: key: 0 = normal development, 5 = all killed; conditions: 500 g/ha, 3 weeks, glass house 25° C.
Procedure, shortened: as §1

[17] = tested on: corn; assay: Foliar spread test for upland field; type: in vivo; design: key: 0 = normal development, 5 = all killed (6 ranks vs. untreated); conditions: foliar spray, 500 ppm, 3 weeks, glass house 25° C.
Procedure, shortened: as §7

[18] = tested on: Cyperus serotinus Rottb.; assay: Herbicidal test for paddy field; type: in vivo; conditions: 500 g/ha, dropwise addition to paddy water at 1.5 leaf stage of barnyard grass; glass house 25° C., 3 weeks; rank 0-5 vs non-treated district
Method: as §3, §4, §5, §6

[19] = tested on: Cassia obtusifolia; assay: Foliar spread test for upland field; type: in vivo; design: key: 0 = normal development, 5 = all killed; conditions: foliar spray, 500 ppm, 3 weeks, glass house 25° C.
Method: as §6
(§8) Wagner pots, each having an area of 1/5000 are, were packed with volcanic ash soil and then each seed of corn, soybean, cotton, wheat, solgum, sugar beat, Large crabgrass, barnyardgrjass, green foxtail, blackgrass, annual bluegrass, common lambsquarters, livid amaranth, velvetleaf, morning glory, Xanthium pensylvanicum and Cassia obtusifolia was planted, covered with soil and grown in a glass house at an average temperature of 25° C. for about 2 weeks.
(§9) Each wettable powder of the desired compounds (I) shown in Tables 1 to 21, 24, 25, 28 and 29 prepared in accordance with Example 2 was diluted to 500 ppm with water containing a surfactant (0.5%) and then uniformly sprayed on the above respective plants.
(§10) After these plants were controlled in a glass house at an average temperature of 25° C. for 3 weeks, the herbicidal effects thereof were investigated.
(§11) The herbicidal effects were evaluated according to the evaluation method described in the above (1).

[20] = tested on: Xanthium pensylvanicum; assay: Foliar spread test for upland field; type: in vivo; design: key: 0 = normal development, 5 = all killed; conditions: foliar spray, 500 ppm, 3 weeks, glass house 25° C.
Method: as §6, §8, §9, §10, §11

[21] = tested on: blackgrass; assay: Foliar spread test for upland field; type: in vivo, Alopecurus aegualis; design: key: 0 = normal development, 5 = all killed (6 ranks vs. untreated); conditions: foliar spray, 500 ppm, 3 weeks, glass house 25° C.
Procedure, shortened: as §7

[22] = tested on: sugar beat; assay: Soil treatment test for upland field; type: in vivo; design: key: 0 = normal development, 5 = all killed; conditions: 500 g/ha, 3 weeks, glass house 25° C.
Procedure, shortened: as §1

[23] = tested on: solgum; assay: Soil treatment test for upland field; type: in vivo; design: key: 0 = normal development, 5 = all killed; conditions: 500 g/ha, 3 weeks, glass house 25° C.
Procedure, shortened: as §1

[24] = tested on: common Cocklebur (Xanthium strumarium); assay: Soil treatment test for upland field; type: in vivo; conditions: 500 g/ha, 3 weeks, glass house 25° C.
Method: as §6
Wagner pots, each having an area of 1/5000 are, were packed with Ube soil (alluvial soil), and then each seed of corn, soybean, cotton, wheat, solgum, sugar beat, Large crabgrass, barnyard grass, green foxtail, blackgrass, annual bluegrass, common lambsquarters, livid amaranth, velvetleaf, morning glory, common Cocklebur (Xanthium strumarium) and sicklepod (Cassia obtusifolia) were planted and covered with soil.
Each wettable powder of the desired compounds (I) shown in Tables 1 to 21, 24, 25, 28 and 29 prepared in accordance with Example 2 was diluted with water containing a surfactant (0.05%) and uniformly sprayed on the surface of each soil so that an effective concentration of the compound (I) in each herbicide became 500 g/ha.
as §5, §11

[25] = tested on: bulrush; assay: Herbicidal test for paddy field; type: in vivo, Scrips juncoides; conditions: 500 g/ha, dropwise addition to paddy water at 1.5 leaf stage of barnyard grass; glass house 25° C., 3 weeks; rank 0-5 vs non-treated district
Procedure, shortened: as §2

[26] = tested on: velvetleaf; assay: Soil treatment test for upland field; type: in vivo, Abutilon theophrasti; design: key: 0 = normal development, 5 = all killed; conditions: 500 g/ha, 3 weeks, glass house 25° C.
Procedure, shortened: as §1

[27] = tested on: blackgrass; assay: Soil treatment test for upland field; type: in vivo, Alopecurus aegualis; design: key: 0 = normal development, 5 = all killed; conditions: 500 g/ha, 3 weeks, glass house 25° C.
Procedure, shortened: as §1

[28] = tested on: barnyardgrjass; assay: Foliar spread test for upland field; type: in vivo, Eschinochloa crusgalli; design: key: 0 = normal development, 5 = all killed (6 ranks vs. untreated); conditions: foliar spray, 500 ppm, 3 weeks, glass house 25° C.
Procedure, shortened: as §7

[29] = tested on: morning glory; assay: Soil treatment test for upland field; type: in vivo, Ipomoea spps.; design: key: 0 = normal development, 5 = all killed; conditions: 500 g/ha, 3 weeks, glass house 25° C.
Procedure, shortened: as §1

[30] = tested on: cotton; assay: Foliar spread test for upland field; type: in vivo; design: key: 0 = normal development, 5 = all killed (6 ranks vs. untreated); conditions: foliar spray, 500 ppm, 3 weeks, glass house 25° C.
Procedure, shortened: as §7

[31] = tested on: sugar beat; assay: Foliar spread test for upland field; type: in vivo; design: key: 0 = normal development, 5 = all killed (6 ranks vs. untreated); conditions: foliar spray, 500 ppm, 3 weeks, glass house 25° C.
Procedure, shortened: as §7

[32] = tested on: solgum; assay: Foliar spread test for upland field; type: in vivo; design: key: 0 = normal development, 5 = all killed (6 ranks vs. untreated); conditions: foliar spray, 500 ppm, 3 weeks, glass house 25° C.
Procedure, shortened: as §7

[33] = tested on: soybean; assay: Foliar spread test for upland field; type: in vivo; design: key: 0 = normal development, 5 = all killed (6 ranks vs. untreated); conditions: foliar spray, 500 ppm, 3 weeks, glass house 25° C.
Procedure, shortened: as §7

[34] = tested on: velvetleaf; assay: Foliar spread test for upland field; type: in vivo, Abutilon theophrasti; design: key: 0 = normal development, 5 = all killed (6 ranks vs. untreated); conditions: foliar spray, 500 ppm, 3 weeks, glass house 25° C.
Procedure, shortened: as §7

[35] = tested on: arrowhead; assay: Herbicidal test for paddy field; type: in vivo, Sagittaria pygmaea; conditions: 500 g/ha, dropwise addition to paddy water at 1.5 leaf stage of barnyard grass; glass house 25° C., 3 weeks; rank 0-5 vs non-treated district
Method: as §3, §4, §5, §6

[36] = tested on: annual bluegrass; assay: Foliar spread test for upland field; type: in vivo, Poa annua; design: key: 0 = normal development, 5 = all killed (6 ranks vs. untreated); conditions: foliar spray, 500 ppm, 3 weeks, glass house 25° C.
Procedure, shortened: as §7

[37] = tested on: morning glory; assay: Foliar spread test for upland field; type: in vivo, Ipomoea spps.; design: key: 0 = normal development, 5 = all killed (6 ranks vs. untreated); conditions: foliar spray, 500 ppm, 3 weeks, glass house 25° C.
Procedure, shortened: as §7

Row | SMILES | Effects Large crabgrass [1] | Effects Barnyardgrass [2] | Effects Annual bluegrass [3] | Effects Corn [4] | Effects Wheat [5] | Effects Soybean [6] | Effects Barnyardgrass [7] | Effects Monochoria [8] | Effects Green foxtail [9] | Effects Green foxtail [10] | Effects Livid amaranth [11] | Effects Large crabgrass [12] | Effects Common lambsquarters [13] | Effects Wheat [14] | Effects Livid amaranth [15] | Effects Common lambsquarters [16] | Effects Corn [17] | also measured
1 | CCC(Oc1cc(C(F)(F)F)nn1C)c1nc2cc(C#N)c(F)cc2o1 (stereo not shown) [Compound 1-e-10] | 5 | 5 | 5 | 1 | 0 | 2 | 4 | 4 | 5 | 5 | 5 | 5 | 5 | 1 | 5 | 5 | – | –
2 | CCC(Sc1cc(C(F)(F)F)nn1C)c1nc2cc(Cl)ccc2o1 (stereo not shown) [Compound 1-e-12] | 5 | – | 4 | 0 | 0 | 0 | 3 | 5 | – | 2 | – | – | – | – | 4 | 3 | – | –
3 | CCC(Oc1cc(C(F)(F)F)no1)c1nc2cc(C#N)c(F)cc2o1 (stereo not shown) [Compound 1-e-28] | 5 | 5 | 5 | 0 | 0 | 1 | 4 | 5 | 4 | 5 | 5 | 4 | 5 | 2 | 5 | 5 | 2 | –
4 | CCCC(Oc1cc(C)nc(C#N)n1)c1nc2cc(C#N)ccc2o1 (stereo not shown) [Compound 1-e-70] | 2 | – | – | 0 | 0 | 0 | – | 3 | – | – | – | – | – | – | 5 | 3 | – | –
5 | FC(F)(F)c1cccc(Oc2cccc(-c3nc4cc(C(F)(F)F)ccc4o3)n2)c1 [I-a-13] | 5 | 2 | 5 | 1 | 1 | – | 4 | – | 5 | 5 | 5 | 3 | 5 | 2 | 5 | 5 | 2 | Effects Cyperus serotinus Rottb. [18]: 0; Effects Sicklepod [19]: 5; Effects Common Cocklebur [20]: 4; Effects Blackgrass [21]: 3; Effects Sugar beat [22]: 5; Effects Solgum [23]: 0; Effects Common Cocklebur [24]: 3; Effects Bulrush [25]: 0; Effects Velvetleaf [26]: 5; Effects Blackgrass [27]: 4; Effects Barnyardgrass [28]: 2; Effects Morning glory [29]: 4; Effects Sotton [30]: 5; Effects Sugar beat [31]: 4; Effects Solgum [32]: 2; Effects Soybean [33]: 3; Effects Velvetleaf [34]: 4; Effects Arrowhead [35]: 1; Effects Annual bluegrass [36]: 4; Effects Morning glory [37]: 5
